According to ChEMBL document CHEMBL1201862, “PubChem BioAssay data set” (2004):
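Assay format: 96-well plates, 48-hour exposure. The concentration for 50% growth inhibition is given as GI50.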 Calls of active or inactive are those of the source. Cut-off read from the data, not from the text of the source: active = GI50 up to about 1.1 µM and inactive = higher.

Legend:
Assay in all cases: NCI tumour cell line growth inhibition, 48 h
CAKI-1 = test system: CAKI-1
COLO 205 = test system: COLO 205
EKVX = test system: EKVX
HCT-15 = test system: HCT-15
HOP-92 = test system: HOP-92
Hs-578T = test system: Hs-578T
KM12 = test system: KM12
LOX IMVI = test system: LOX IMVI
MCF7 = test system: MCF7
MDA-MB-435 = test system: MDA-MB-435
MOLT-4 = test system: MOLT-4
Malme-3M = test system: Malme-3M
RXF 393 = test system: RXF 393
SF-268 = test system: SF-268
SK-MEL-2 = test system: SK-MEL-2
SK-MEL-5 = test system: SK-MEL-5
SK-OV-3 = test system: SK-OV-3
SN12C = test system: SN12C
SNB-75 = test system: SNB-75
T47D = test system: T47D

SMILES | GI50 (CAKI-1) | GI50 (COLO 205) | GI50 (EKVX) | GI50 (HCT-15) [µM] | GI50 (HOP-92) | GI50 (Hs-578T) | GI50 (KM12) | GI50 (LOX IMVI) | GI50 (MCF7) | GI50 (MDA-MB-435) | GI50 (MOLT-4) | GI50 (Malme-3M) | GI50 (RXF 393) | GI50 (SF-268) | GI50 (SK-MEL-2) | GI50 (SK-MEL-5) | GI50 (SK-OV-3) | GI50 (SN12C) | GI50 (SNB-75) | GI50 (T47D)
Cc1cn2c(/C=C3/C(=O)Nc4ccccc43)c(-c3ccccc3)nc2s1 | > 100 µM (inactive) | > 100 µM (inactive) | 71.3 µM (inactive) | > 100 | 36.5 µM (inactive) | 27.7 µM (inactive) | > 100 µM (inactive) | 91 µM (inactive) | 29.4 µM (inactive) | > 100 µM (inactive) | > 100 µM (inactive) | > 100 µM (inactive) | 27 µM (inactive) | 31 µM (inactive) | 28.1 µM (inactive) | 71.1 µM (inactive) | 30.1 µM (inactive) | 93.1 µM (inactive) | 25.8 µM (inactive) | 38.9 µM (inactive)
COc1ccc(C[C@H]2NC[C@H](OC(C)=O)[C@H]2OC(C)=O)cc1 | 0.144 µM (active) | 0.147 µM (active) | 0.136 µM (active) | 0.144 | 0.0417 µM (active) | 0.135 µM (active) | 0.192 µM (active) | 0.067 µM (active) | 0.14 µM (active) | 0.164 µM (active) | 0.205 µM (active) | 0.158 µM (active) | 0.144 µM (active) | 0.0614 µM (active) | 0.184 µM (active) | 0.0665 µM (active) | 0.138 µM (active) | 0.124 µM (active) | 0.0721 µM (active) | 0.112 µM (active)
COC(=O)c1ccccc1CC1Cc2c(C)ccc(C)c2C1=O (stereo not given) | 34.5 µM (inactive) | 19.1 µM (inactive) | 13.5 µM (inactive) | 24.6 | 17.2 µM (inactive) | 33.3 µM (inactive) | 23.6 µM (inactive) | 16.5 µM (inactive) | 11.2 µM (inactive) | 23.1 µM (inactive) | 19.6 µM (inactive) | 22.4 µM (inactive) | 21.4 µM (inactive) | 29.6 µM (inactive) | 17.9 µM (inactive) | 17.8 µM (inactive) | 38.6 µM (inactive) | 45.3 µM (inactive) | 36.1 µM (inactive) | 21.4 µM (inactive)
c1cc2c(cc1NC1=NCCO1)OCO2 | > 100 µM (inactive) | > 100 µM (inactive) | > 100 µM (inactive) | > 100 | > 70.3 µM (inactive) | > 100 µM (inactive) | > 100 µM (inactive) | > 100 µM (inactive) | > 100 µM (inactive) | 50.4 µM (inactive) | > 100 µM (inactive) | > 100 µM (inactive) | > 100 µM (inactive) | > 100 µM (inactive) | > 100 µM (inactive) | > 100 µM (inactive) | > 100 µM (inactive) | > 100 µM (inactive) | 45.9 µM (inactive) | > 100 µM (inactive)
c1ccc2c(c1)NC1(N3CCCCC3)CCCCC21 (stereo not given) | 55.6 µM (inactive) | 62.1 µM (inactive) | 25.5 µM (inactive) | 44 | 20 µM (inactive) | 47.9 µM (inactive) | 32.3 µM (inactive) | 38.4 µM (inactive) | 36.1 µM (inactive) | 35.2 µM (inactive) | 25.9 µM (inactive) | 58.2 µM (inactive) | 9.16 µM (inactive) | 52.5 µM (inactive) | 49.3 µM (inactive) | 56.1 µM (inactive) | > 100 µM (inactive) | 35.4 µM (inactive) | 22.5 µM (inactive) | 20.9 µM (inactive)
